{"source": "patent US9050341B2", "about": "“Methods of treating drug resistant and other tumors by administering 6,7-dialkoxy quinazoline derivatives” (NATCO PHARMA LIMITED, priority 2009, dated 2015)", "key": {"[1]": {"assay": "Acute oral toxicity (MTD) in Swiss albino mice", "type": "in vivo", "settings": "for clinical signs of toxicity: oral, 1000 mg/kg (high dose), mono hydrochloride, 1000 mg/kg"}, "[2]": {"assay": "Toxicokinetics in the 30 day repeated dose study in beagle dogs", "type": "in vivo", "method": "The 30 day repeated dose study employed 12 male and 12 female dogs (Marshall's Farm, China). The dogs were acclimatized for a minimum period of 2 weeks and randomly divided into four main groups (G1-G4), each group comprising of 3 dogs per sex. The animals were dosed orally with capsules of NRC-2694A for a period of 30 consecutive days at dose levels of 10 mg/kg b.wt/day (G2-low dose), 20 mg/kg b.wt/day (G3-mid dose) and 40 mg/kg b.wt/day (G4-high dose). […] The control group (G1-0 mg/kg b. wt/day) animals were dosed by oral capsule with placebo.\nThe study also tracked body weight (weekly), food consumption (daily), opthalmological status (start and end), hematological and biochemical analyses (start and end), toxicokinetics analysis of plasma (start and end). At the end of the study, all dogs were euthanized by a humane and accepted procedure, subjected to a gross post-mortem examination, organ weights (absolute and relative) were determined, and histopathological examination was carried out.\nThe toxicokinetic parameters viz."}, "YES": {"biological_target": "T1, YES (Homo sapiens, UniProt P07947)", "T1 construct": "purchased Ambit Biosciences Corp (KinomeScan); host or cells: E. coli host derived from the BL21 strain (T7 phage lysate)", "T1 sequence (P07947 whole entry)": "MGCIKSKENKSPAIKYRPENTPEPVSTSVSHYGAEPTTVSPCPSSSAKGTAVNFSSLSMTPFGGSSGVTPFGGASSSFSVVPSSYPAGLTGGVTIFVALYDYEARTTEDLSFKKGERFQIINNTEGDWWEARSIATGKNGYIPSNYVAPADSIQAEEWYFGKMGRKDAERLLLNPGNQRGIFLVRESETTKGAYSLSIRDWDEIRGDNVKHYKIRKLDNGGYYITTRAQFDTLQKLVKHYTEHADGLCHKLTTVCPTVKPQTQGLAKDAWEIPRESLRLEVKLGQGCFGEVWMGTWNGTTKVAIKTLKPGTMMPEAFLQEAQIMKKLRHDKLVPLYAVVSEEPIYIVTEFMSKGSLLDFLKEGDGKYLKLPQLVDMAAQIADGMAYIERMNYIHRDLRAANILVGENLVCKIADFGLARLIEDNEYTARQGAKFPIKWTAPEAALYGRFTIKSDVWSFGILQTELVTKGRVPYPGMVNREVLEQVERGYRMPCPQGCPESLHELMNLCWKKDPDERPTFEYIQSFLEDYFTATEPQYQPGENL", "assay": "KinomeScan kinase profiling", "type": "binding"}, "PKAC-alpha": {"biological_target": "T2, PKAC-alpha (Homo sapiens, UniProt P17612)", "T2 construct": "purchased Ambit Biosciences Corp (KinomeScan); host or cells: E. coli host derived from BL21, infected with T7 phage", "assay": "KinomeScan kinase profiling", "type": "binding"}, "EPHA2": {"biological_target": "T3, EPHA2 (Homo sapiens, UniProt P29317)", "T3 construct": "host or cells: E. coli host derived from BL21, T7 phage lysate", "assay": "KinomeScan kinase profiling", "type": "binding"}, "FGFR1": {"biological_target": "T4, FGFR1 (Homo sapiens, UniProt P11362)", "T4 construct": "host or cells: E. coli host derived from BL21, infected with T7 phage", "assay": "KinomeScan kinase profiling", "type": "binding"}, "HPK1": {"biological_target": "T5, HPK1 (Homo sapiens, UniProt Q92918)", "T5 construct": "host or cells: E. coli host derived from BL21, infected with T7 phage", "T5 sequence (Q92918 whole entry)": "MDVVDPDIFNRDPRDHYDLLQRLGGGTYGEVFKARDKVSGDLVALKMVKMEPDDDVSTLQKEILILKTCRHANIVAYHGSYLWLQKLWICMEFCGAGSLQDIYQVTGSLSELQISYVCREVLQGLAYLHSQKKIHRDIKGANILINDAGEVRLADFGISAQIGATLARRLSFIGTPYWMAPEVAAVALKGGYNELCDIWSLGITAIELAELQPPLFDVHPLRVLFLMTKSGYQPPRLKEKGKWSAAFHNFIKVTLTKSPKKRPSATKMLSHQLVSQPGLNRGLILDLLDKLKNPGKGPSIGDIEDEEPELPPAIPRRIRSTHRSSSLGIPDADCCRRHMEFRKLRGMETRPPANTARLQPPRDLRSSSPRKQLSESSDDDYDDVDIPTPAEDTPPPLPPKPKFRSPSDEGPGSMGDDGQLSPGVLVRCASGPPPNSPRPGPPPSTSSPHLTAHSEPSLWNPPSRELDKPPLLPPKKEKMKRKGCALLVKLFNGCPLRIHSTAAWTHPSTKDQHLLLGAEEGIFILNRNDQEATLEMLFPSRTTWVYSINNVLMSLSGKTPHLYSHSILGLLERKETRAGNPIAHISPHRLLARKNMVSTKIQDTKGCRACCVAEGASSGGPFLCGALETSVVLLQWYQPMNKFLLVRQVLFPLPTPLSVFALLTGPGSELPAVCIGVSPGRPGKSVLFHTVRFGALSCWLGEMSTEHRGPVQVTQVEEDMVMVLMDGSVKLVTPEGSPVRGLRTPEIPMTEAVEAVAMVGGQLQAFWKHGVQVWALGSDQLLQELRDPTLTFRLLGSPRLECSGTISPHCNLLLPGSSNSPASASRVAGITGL", "assay": "KinomeScan kinase profiling", "type": "binding"}, "ULK2": {"biological_target": "T6, ULK2 (Homo sapiens, UniProt Q8IYT8)", "T6 construct": "purchased Ambit Biosciences Corp (KinomeScan); host or cells: E. coli host derived from the BL21 strain (T7 phage lysate)", "assay": "KinomeScan kinase profiling", "type": "binding"}, "IKK-beta": {"biological_target": "T7, IKK-beta (Homo sapiens, UniProt O14920)", "T7 construct": "host or cells: T7 phage in E. coli host derived from BL21", "assay": "KinomeScan kinase profiling", "type": "binding"}, "[3]": {"biological_target": "T8, RPS6KA3 (Kin.Dom.-1-N-terminal) (Homo sapiens, UniProt P51812)", "T8 construct": "RPS6KA3 (Kin.Dom.-1-N-terminal); host or cells: E. coli host derived from BL21, T7 phage lysate", "assay": "KinomeScan kinase profiling", "type": "binding"}, "TLK2": {"biological_target": "T9, TLK2 (Homo sapiens, UniProt Q86UE8)", "T9 construct": "purchased Ambit Biosciences Corp (KinomeScan); host or cells: E. coli host derived from the BL21 strain (T7 phage lysate)", "assay": "KinomeScan kinase profiling", "type": "binding"}, "PAK6": {"biological_target": "T10, PAK6 (Homo sapiens, UniProt Q9NQU5)", "T10 construct": "host or cells: E. coli host derived from the BL21 strain, infected with T7 phage", "assay": "KinomeScan kinase profiling", "type": "binding"}, "ERK2": {"biological_target": "T11, ERK2 (Homo sapiens, UniProt P28482)", "T11 construct": "host or cells: E. coli host derived from BL21, T7 phage lysate", "T11 sequence (P28482 whole entry)": "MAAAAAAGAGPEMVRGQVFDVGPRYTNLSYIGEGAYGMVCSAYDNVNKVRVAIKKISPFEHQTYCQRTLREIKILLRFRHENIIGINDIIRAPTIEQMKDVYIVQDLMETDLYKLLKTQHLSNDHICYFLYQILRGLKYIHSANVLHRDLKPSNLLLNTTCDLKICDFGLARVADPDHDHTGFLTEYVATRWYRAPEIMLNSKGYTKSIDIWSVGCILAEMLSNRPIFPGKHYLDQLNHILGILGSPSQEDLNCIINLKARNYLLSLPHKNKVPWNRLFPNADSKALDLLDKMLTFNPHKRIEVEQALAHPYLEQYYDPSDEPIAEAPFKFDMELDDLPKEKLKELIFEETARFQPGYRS", "assay": "KinomeScan kinase profiling", "type": "binding"}, "TGFBR1": {"biological_target": "T12, TGFBR1 (Homo sapiens, UniProt P36897)", "T12 construct": "host or cells: E. coli host derived from the BL21 strain, T7 phage lysate", "assay": "KinomeScan kinase profiling", "type": "binding"}, "LATS2": {"biological_target": "T13, LATS2 (Homo sapiens, UniProt Q9NRM7)", "T13 construct": "host or cells: T7 phage in E. coli host derived from BL21", "assay": "KinomeScan kinase profiling", "type": "binding"}, "SRPK1": {"biological_target": "T14, SRPK1 (Homo sapiens, UniProt Q96SB4)", "T14 construct": "host or cells: E. coli host derived from the BL21 strain, T7 phage lysate", "assay": "KinomeScan kinase profiling", "type": "binding"}, "ROS1": {"biological_target": "T15, ROS1 (Homo sapiens, UniProt P08922)", "T15 construct": "host or cells: E. coli host derived from BL21, T7 phage lysate", "T15 sequence (P08922 28-2347)": "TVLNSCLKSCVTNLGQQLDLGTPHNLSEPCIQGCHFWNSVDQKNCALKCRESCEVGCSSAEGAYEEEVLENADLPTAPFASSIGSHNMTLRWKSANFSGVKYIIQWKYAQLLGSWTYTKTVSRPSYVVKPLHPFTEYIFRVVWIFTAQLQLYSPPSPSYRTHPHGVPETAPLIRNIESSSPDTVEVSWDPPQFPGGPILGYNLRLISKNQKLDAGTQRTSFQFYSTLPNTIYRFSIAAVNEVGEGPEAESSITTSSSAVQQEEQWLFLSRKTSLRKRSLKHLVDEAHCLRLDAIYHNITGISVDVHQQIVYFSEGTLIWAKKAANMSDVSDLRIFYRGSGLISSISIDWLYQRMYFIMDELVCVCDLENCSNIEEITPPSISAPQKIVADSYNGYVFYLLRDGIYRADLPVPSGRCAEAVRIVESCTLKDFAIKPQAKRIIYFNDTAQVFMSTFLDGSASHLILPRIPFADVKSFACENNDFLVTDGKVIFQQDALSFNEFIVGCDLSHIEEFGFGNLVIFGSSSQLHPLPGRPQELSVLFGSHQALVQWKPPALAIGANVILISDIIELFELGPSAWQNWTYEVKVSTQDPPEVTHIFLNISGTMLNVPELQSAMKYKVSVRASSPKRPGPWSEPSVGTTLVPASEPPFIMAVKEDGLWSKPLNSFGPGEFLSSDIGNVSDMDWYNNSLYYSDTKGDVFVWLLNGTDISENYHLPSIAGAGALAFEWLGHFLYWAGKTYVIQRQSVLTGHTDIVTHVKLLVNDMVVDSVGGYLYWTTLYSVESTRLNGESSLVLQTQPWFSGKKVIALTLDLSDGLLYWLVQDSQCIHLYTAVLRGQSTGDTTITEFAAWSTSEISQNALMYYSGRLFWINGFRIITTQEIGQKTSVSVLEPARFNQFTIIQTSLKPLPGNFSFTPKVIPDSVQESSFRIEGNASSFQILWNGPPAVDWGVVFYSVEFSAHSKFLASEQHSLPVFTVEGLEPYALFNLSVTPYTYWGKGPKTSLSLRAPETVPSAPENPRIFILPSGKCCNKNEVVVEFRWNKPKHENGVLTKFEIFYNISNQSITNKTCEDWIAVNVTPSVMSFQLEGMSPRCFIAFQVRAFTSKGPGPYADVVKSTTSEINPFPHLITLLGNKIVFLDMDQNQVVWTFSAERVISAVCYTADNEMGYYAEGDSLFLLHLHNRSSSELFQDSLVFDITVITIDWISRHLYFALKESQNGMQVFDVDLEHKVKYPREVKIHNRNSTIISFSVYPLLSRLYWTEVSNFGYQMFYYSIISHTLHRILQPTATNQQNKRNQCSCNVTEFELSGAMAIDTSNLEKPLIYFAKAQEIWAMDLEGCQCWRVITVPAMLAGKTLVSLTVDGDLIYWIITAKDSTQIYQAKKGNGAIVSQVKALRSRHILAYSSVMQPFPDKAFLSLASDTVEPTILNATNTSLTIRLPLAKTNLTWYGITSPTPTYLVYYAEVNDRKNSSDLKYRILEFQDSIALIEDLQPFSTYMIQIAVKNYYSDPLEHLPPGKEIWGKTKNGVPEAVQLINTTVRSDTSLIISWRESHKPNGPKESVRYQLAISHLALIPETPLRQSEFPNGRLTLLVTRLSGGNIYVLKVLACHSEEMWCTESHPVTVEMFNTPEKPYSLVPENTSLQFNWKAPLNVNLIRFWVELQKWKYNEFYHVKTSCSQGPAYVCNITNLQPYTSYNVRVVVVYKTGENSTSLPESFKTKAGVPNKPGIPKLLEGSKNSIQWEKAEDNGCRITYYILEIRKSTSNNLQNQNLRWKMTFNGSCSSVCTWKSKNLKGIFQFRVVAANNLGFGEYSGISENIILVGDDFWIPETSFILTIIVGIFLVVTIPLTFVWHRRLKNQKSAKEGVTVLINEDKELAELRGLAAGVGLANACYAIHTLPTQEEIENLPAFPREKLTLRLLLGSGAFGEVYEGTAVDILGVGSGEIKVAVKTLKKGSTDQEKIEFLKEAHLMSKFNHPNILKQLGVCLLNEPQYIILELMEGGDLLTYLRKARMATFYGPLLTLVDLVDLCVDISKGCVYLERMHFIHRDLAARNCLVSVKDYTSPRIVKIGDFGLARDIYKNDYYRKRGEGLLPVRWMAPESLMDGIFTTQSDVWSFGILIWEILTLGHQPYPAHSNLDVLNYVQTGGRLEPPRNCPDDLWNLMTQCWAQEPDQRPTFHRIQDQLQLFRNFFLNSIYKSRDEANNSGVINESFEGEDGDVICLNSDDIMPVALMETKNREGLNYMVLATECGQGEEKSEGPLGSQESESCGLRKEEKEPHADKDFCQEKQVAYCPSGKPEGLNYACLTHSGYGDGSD", "assay": "KinomeScan kinase profiling", "type": "binding"}, "CSNK1G3": {"biological_target": "T16, CSNK1G3 (Homo sapiens, UniProt Q9Y6M4)", "T16 construct": "purchased Ambit Biosciences Corp (KinomeScan); host or cells: T7 phage in E. coli host derived from BL21", "assay": "KinomeScan kinase profiling", "type": "binding"}, "PKAC-beta": {"biological_target": "T17, PKAC-beta (Homo sapiens, UniProt P22694)", "T17 construct": "purchased Ambit Biosciences Corp (KinomeScan); host or cells: E. coli host derived from BL21, infected with T7 phage", "assay": "KinomeScan kinase profiling", "type": "binding"}, "CAMK2G": {"biological_target": "T18, CAMK2G (Homo sapiens, UniProt Q13555)", "T18 construct": "purchased Ambit Biosciences Corp (KinomeScan); host or cells: E. coli host derived from the BL21 strain, T7 phage", "assay": "KinomeScan kinase profiling", "type": "binding"}, "PIP5K2B": {"biological_target": "T19, PIP5K2B (Homo sapiens, UniProt P78356)", "T19 construct": "purchased Ambit Biosciences Corp (KinomeScan); host or cells: E. coli host derived from BL21, infected with T7 phage", "T19 sequence (P78356 whole entry)": "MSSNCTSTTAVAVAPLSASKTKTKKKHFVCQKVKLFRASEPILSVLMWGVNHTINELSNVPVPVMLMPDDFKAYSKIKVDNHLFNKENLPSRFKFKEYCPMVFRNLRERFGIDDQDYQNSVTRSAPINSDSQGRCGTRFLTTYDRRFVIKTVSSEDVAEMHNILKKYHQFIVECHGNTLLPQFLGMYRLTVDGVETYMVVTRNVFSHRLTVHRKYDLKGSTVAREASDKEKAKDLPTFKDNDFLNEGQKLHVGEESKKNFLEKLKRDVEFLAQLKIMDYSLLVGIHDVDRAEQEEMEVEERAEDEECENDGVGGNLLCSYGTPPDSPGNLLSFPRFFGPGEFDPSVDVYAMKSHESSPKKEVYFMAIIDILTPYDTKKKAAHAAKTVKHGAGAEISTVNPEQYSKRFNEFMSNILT", "assay": "KinomeScan kinase profiling", "type": "binding"}, "CDK9": {"biological_target": "T20, CDK9 (Homo sapiens, UniProt P50750)", "T20 construct": "host or cells: T7 phage in E. coli (BL21-derived)", "assay": "KinomeScan kinase profiling", "type": "binding"}, "SRPK3": {"biological_target": "T21, SRPK3 (Homo sapiens, UniProt Q9UPE1)", "T21 construct": "host or cells: E. coli host derived from the BL21 strain, T7 phage lysate", "T21 sequence (Q9UPE1 whole entry)": "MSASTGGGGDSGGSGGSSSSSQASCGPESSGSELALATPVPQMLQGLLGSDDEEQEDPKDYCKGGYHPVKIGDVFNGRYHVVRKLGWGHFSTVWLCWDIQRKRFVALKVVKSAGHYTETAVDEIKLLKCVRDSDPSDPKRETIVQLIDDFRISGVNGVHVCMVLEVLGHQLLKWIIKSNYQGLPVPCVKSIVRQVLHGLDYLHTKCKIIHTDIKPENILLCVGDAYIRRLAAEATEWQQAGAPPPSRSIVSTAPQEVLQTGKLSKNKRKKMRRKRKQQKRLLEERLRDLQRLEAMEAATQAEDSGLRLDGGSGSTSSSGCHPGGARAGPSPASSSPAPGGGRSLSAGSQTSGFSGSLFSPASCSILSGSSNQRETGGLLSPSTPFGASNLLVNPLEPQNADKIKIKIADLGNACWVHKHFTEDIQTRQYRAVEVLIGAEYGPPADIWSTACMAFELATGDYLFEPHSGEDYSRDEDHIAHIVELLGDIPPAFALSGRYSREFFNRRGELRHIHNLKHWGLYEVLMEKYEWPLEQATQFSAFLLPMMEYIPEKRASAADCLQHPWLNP", "assay": "KinomeScan kinase profiling", "type": "binding"}, "DCAMKL2": {"biological_target": "T22, DCAMKL2 (Homo sapiens, UniProt Q8N568)", "T22 construct": "purchased Ambit Biosciences Corp (KinomeScan); host or cells: T7 phage in E. coli host derived from BL21", "assay": "KinomeScan kinase profiling", "type": "binding"}, "MARK1": {"biological_target": "T23, MARK1 (Homo sapiens, UniProt Q9P0L2)", "T23 construct": "host or cells: E. coli derived from BL21, infected with T7 phage", "assay": "KinomeScan kinase profiling", "type": "binding"}, "PDPK1": {"biological_target": "T24, PDPK1 (Homo sapiens, UniProt O15530)", "T24 construct": "host or cells: E. coli host derived from the BL21 strain, infected with T7 phage", "assay": "KinomeScan kinase profiling", "type": "binding"}, "CDK2": {"biological_target": "T25, CDK2 (Homo sapiens, UniProt P24941)", "T25 construct": "host or cells: T7 phage in E. coli (BL21-derived)", "assay": "KinomeScan kinase profiling", "type": "binding"}, "MARK3": {"biological_target": "T26, MARK3 (Homo sapiens, UniProt P27448)", "T26 construct": "host or cells: E. coli derived from BL21, infected with T7 phage", "assay": "KinomeScan kinase profiling", "type": "binding"}}}
{"smiles": "C#Cc1cccc(Nc2ncnc3cc(OC)c(OCCCN4CCOCC4)cc23)c1.Cl", "note": "[NRC-2694 monohydrochloride, N-(3-ethylnylphenyl)-7-methoxy-6-[3-(4-morpholinyl)propoxy]-4-quinazolinamine mono hydrochloride]", "values": [{"measurement": "maximum tolerated dose (MTD)", "setting": "[1]; acute oral gavage, Swiss albino mice", "value": 1000, "unit": "mg/kg body weight"}, {"measurement": "gross pathological examination", "setting": "[1]; mice, after day 14", "value": "did not reveal any lesions of pathological significance"}, {"measurement": "mean body weight and percent body weight", "setting": "[1]; mice, compared with control groups", "value": "No significant alterations"}, {"measurement": "toxic signs or mortality", "setting": "[1]; mice, oral gavage, 250 mg/kg body weight (low dose) and 500 mg/kg (mid dose)", "value": "did not produce any toxic signs or mortality"}, {"measurement": "clinical signs of toxicity", "setting": "[1]; mice, listed as NRC-2694A blend", "value": "signs of lethargy and piloerection in all animals without any mortality"}, {"measurement": "clinical signs of toxicity", "setting": "[1]; mice", "value": "mild lethargy and piloerection"}, {"measurement": "mortality", "setting": "[1]; mice, oral, 250, 500 and 1000 mg/kg, 14 days observation", "value": "No mortality"}, {"measurement": "median Tmax", "setting": "[2]; day 1, female dogs, 10 mg/kg oral", "value": 2, "unit": "h"}, {"measurement": "median Tmax", "setting": "[2]; day 1, female dogs, 20 mg/kg oral", "value": 4, "unit": "h"}, {"measurement": "median Tmax", "setting": "[2]; day 1, female dogs, 40 mg/kg oral", "value": 4, "unit": "h"}, {"measurement": "median Tmax", "setting": "[2]; day 1, male dogs, 10 mg/kg oral", "value": 2, "unit": "h"}, {"measurement": "median Tmax", "setting": "[2]; day 1, male dogs, 20 mg/kg oral", "value": 3, "unit": "h"}, {"measurement": "median Tmax", "setting": "[2]; day 1, male dogs, 40 mg/kg oral", "value": 2, "unit": "h"}, {"measurement": "median Tmax", "setting": "[2]; day 30, female dogs, 10 mg/kg oral", "value": 2, "unit": "h"}, {"measurement": "median Tmax", "setting": "[2]; day 30, female dogs, 20 mg/kg oral", "value": 4, "unit": "h"}, {"measurement": "median Tmax", "setting": "[2]; day 30, male dogs, 10 mg/kg oral", "value": 2, "unit": "h"}, {"measurement": "median Tmax", "setting": "[2]; day 30, male dogs, 20 mg/kg oral", "value": 3, "unit": "h"}, {"measurement": "Cmax, dose dependence", "setting": "[2]; three dose levels, male and female dogs", "value": "dose-dependent change"}]}
{"smiles": "C#Cc1cccc(Nc2ncnc3cc(OC)c(OCCCN4CCOCC4)cc23)c1", "note": "[NRC-2694, N-(3-ethylnylphenyl)-7-methoxy-6-[3-(4-morpholinyl)propoxy]-4-quinazolinamine]", "values": [{"measurement": "% Ctrl @ 10000 nM", "setting": "YES", "value": 41, "unit": "% Ctrl"}, {"measurement": "% Ctrl @ 10000 nM", "setting": "PKAC-alpha", "value": 100, "unit": "% Ctrl"}, {"measurement": "% Ctrl @ 10000 nM", "setting": "EPHA2", "value": 100, "unit": "% Ctrl"}, {"measurement": "% Ctrl @ 10000 nM", "setting": "FGFR1", "value": 64, "unit": "% Ctrl"}, {"measurement": "% Ctrl @ 10000 nM", "setting": "HPK1", "value": 47, "unit": "% Ctrl"}, {"measurement": "% Ctrl @ 10000 nM", "setting": "ULK2", "value": 39, "unit": "% Ctrl"}, {"measurement": "% Ctrl @ 10000 nM", "setting": "IKK-beta", "value": 51, "unit": "% Ctrl"}, {"measurement": "% Ctrl @ 10000 nM", "setting": "[3]", "value": 94, "unit": "% Ctrl"}, {"measurement": "% Ctrl @ 10000 nM", "setting": "TLK2", "value": 82, "unit": "% Ctrl"}, {"measurement": "% Ctrl @ 10000 nM", "setting": "PAK6", "value": 70, "unit": "% Ctrl"}, {"measurement": "% Ctrl @ 10000 nM", "setting": "ERK2", "value": 100, "unit": "% Ctrl"}, {"measurement": "% Ctrl @ 10000 nM", "setting": "TGFBR1", "value": 83, "unit": "% Ctrl"}, {"measurement": "% Ctrl @ 10000 nM", "setting": "LATS2", "value": 93, "unit": "% Ctrl"}, {"measurement": "% Ctrl @ 10000 nM", "setting": "SRPK1", "value": 40, "unit": "% Ctrl"}, {"measurement": "% Ctrl @ 10000 nM", "setting": "ROS1", "value": 46, "unit": "% Ctrl"}, {"measurement": "% Ctrl @ 10000 nM", "setting": "CSNK1G3", "value": 61, "unit": "% Ctrl"}, {"measurement": "% Ctrl @ 10000 nM", "setting": "PKAC-beta", "value": 88, "unit": "% Ctrl"}, {"measurement": "% Ctrl @ 10000 nM", "setting": "CAMK2G", "value": 58, "unit": "% Ctrl"}, {"measurement": "% Ctrl @ 10000 nM", "setting": "PIP5K2B", "value": 49, "unit": "% Ctrl"}, {"measurement": "% Ctrl @ 10000 nM", "setting": "CDK9", "value": 86, "unit": "% Ctrl"}, {"measurement": "% Ctrl @ 10000 nM", "setting": "SRPK3", "value": 38, "unit": "% Ctrl"}, {"measurement": "% Ctrl @ 10000 nM", "setting": "DCAMKL2", "value": 69, "unit": "% Ctrl"}, {"measurement": "% Ctrl @ 10000 nM", "setting": "MARK1", "value": 56, "unit": "% Ctrl"}, {"measurement": "% Ctrl @ 10000 nM", "setting": "PDPK1", "value": 94, "unit": "% Ctrl"}, {"measurement": "% Ctrl @ 10000 nM", "setting": "CDK2", "value": 94, "unit": "% Ctrl"}, {"measurement": "% Ctrl @ 10000 nM", "setting": "MARK3", "value": 62, "unit": "% Ctrl"}]}
